Experimental data published in paper doi:10.1101/706028v1 (biorxiv, 2019).

Key:
Nluc-SMO = Nluc-SMO (Mus musculus, UniProt P56726, D477G/E522K); assay: NanoBRET saturation binding, live cells; type: cell-based
ΔCRD Nluc-SMO = ΔCRD Nluc-SMO (Mus musculus, UniProt P56726, D477G/E522K); assay: NanoBRET saturation binding, live cells; type: cell-based
Sequence of ΔCRD Nluc-SMO (P56726 185-793 D477G/E522K): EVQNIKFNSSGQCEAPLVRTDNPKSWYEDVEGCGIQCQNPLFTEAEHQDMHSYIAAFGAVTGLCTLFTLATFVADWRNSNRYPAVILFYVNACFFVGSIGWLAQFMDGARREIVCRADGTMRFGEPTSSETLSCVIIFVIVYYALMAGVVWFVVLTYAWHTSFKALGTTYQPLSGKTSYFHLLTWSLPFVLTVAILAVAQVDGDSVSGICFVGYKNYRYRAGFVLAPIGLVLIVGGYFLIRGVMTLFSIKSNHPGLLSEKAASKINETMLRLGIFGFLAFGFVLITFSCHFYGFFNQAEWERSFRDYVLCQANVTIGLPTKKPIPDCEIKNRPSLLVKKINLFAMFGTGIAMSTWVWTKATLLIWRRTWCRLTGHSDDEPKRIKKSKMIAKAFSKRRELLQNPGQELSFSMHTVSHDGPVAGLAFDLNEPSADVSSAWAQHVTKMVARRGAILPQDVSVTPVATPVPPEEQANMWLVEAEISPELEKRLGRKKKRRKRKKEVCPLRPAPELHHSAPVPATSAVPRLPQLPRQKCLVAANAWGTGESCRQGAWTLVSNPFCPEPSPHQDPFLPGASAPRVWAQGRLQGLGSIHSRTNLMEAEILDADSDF

Sequence of Nluc-SMO (P56726 33-793 D477G/E522K): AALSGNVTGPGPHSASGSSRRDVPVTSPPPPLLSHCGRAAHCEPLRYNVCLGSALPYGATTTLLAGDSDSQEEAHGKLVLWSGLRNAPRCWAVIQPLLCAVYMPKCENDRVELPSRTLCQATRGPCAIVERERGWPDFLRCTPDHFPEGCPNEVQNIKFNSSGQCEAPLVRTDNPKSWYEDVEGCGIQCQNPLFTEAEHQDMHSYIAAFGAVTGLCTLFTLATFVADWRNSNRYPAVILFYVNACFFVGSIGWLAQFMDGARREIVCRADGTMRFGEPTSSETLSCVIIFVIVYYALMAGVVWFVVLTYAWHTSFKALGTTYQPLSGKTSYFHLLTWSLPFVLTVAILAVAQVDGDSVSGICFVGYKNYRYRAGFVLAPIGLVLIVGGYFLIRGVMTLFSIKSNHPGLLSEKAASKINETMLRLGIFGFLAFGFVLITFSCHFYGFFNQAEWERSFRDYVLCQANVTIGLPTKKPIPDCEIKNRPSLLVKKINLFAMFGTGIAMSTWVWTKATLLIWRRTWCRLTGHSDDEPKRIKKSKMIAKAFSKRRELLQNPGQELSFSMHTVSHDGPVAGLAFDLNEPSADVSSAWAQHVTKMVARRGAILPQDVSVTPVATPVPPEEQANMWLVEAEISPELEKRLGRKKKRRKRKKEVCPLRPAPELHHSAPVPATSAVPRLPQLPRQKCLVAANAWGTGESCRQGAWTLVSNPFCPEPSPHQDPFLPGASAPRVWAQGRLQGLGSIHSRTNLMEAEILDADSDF

Which Kd (Nluc-SMO) does the source give for `CC1=CC(C)=[N+]2C1=Cc1ccc(CCC(=O)NCCCCCC(=O)NCCN3C[C@@H](C)C[C@H]4O[C@]5(CC[C@@H]6C(=C5C)C[C@H]5[C@H]6CC=C6C[C@@H](O)CC[C@@]65C)[C@H](C)[C@@H]43)n1[B-]2(F)F` [BODIPY-cyclopamine] here?
Its Kd is 666 ± 122 nM.

What about the Kd (ΔCRD Nluc-SMO) of the same molecule?
Its Kd is 450 ± 38.7 nM.
